Test system: Plasmodium berghei
Experiment: Luciferase/luciferin-expressing antifolate-resistant parasites were used to infect a culture of HepG2 cells that were pre-incubated with compounds. Infected hepatocytes emit light due to the luciferase reaction. Assay results are presented as the percent inhibition of light emission compared to control. […]
Format: functional
Conditions: sporozoite; for IC50: read-out: LUCIFERASE INFECTION ASSAY - IC50; for IC90: read-out: LUCIFERASE INFECTION ASSAY - IC90

| SMILES | IC50 [µM] | IC90 [µM] |
| --- | --- | --- |
| N#CC1=C2SC=C(c3ccc(Br)cc3)N2CCCC1=O | > 10 | > 10 |
| CC(Oc1ccc(Cl)cc1Cl)C(=N)NO (stereo not given) | > 13.2 | > 13.2 |
| O=C(Nc1ccccc1)c1nnsc1S(=O)(=O)c1ccc(Cl)cc1 | > 8.69 | > 8.69 |
| CN(CC(=O)Nc1ccc(Cl)c(Cl)c1)C(=O)C12CC3CC(CC(C3)C1)C2 | > 10 | > 10 |
| Cc1sc2ncnc(Sc3nnnn3-c3ccc(Cl)cc3)c2c1C | > 10 | > 10 |
| COc1ccc(Nc2ncnc3scc(-c4ccc(OC)cc4)c23)cc1 | 2.65 | 4.29 |
| Cc1cc(C(=O)COC(=O)c2[nH]nc3ccccc23)c(C)n1CC1CCCO1 (stereo not given) | 0.417 | 0.491 |
| Cc1ccc(S(=O)(=O)c2c(C)nn(C(C)(C)C)c2OC(=O)c2cccs2)cc1 | > 10 | > 10 |
| COc1cccc(C(=O)Nc2nc3ccccc3[nH]2)c1 | > 10 | > 10 |
| CN(C)CCNCc1ccc(OC2CCCC2)cc1 | > 11 | > 11 |
| COc1ccc(CCNc2ncnc3sc(C)cc23)cc1OC | 0.791 | 2.92 |
| COc1cc(C(=O)OCC#N)ccc1OCc1c(C)noc1C | > 10 | > 10 |
| CN(C)C(S)=Nc1ccc(Cl)cc1 | > 15.4 | > 15.4 |
| CCOc1ccc(C(=O)CCC(=O)O)cc1 | > 14.8 | > 14.8 |
| CC(=O)c1cnc(N)nc1C | > 21.8 | > 21.8 |
| CCn1c2ccccc2c2cc(N)ccc21 | > 10 | > 10 |
| CCOC(=O)c1c(C)nn(-c2ccc(NC(=O)Nc3ccc(Cl)cc3)cc2)c1C | > 7.99 | > 7.99 |
| CSc1ccc(-c2cn3c(-c4cccc(CO)c4)cnc3cn2)cc1 | > 9.5 | > 9.5 |
| COc1ccc2nc3[nH]nc(N)c3cc2c1 | > 10 | > 10 |
| COc1ccc(C(=O)CSC2=NCCCC2)cc1 | > 9.59 | > 9.59 |
| CCN(CC)c1ccc(NC(=S)NC(=O)c2ccco2)cc1S(=O)(=O)Nc1ccc(OC)cc1 | > 10 | > 10 |
| Cc1nn(Cc2n[nH]c(=S)o2)c(C)c1Br | > 11.4 | > 11.4 |
| CC(C(=O)Nc1cc(S(=O)(=O)N2CCCCC2)ccc1Cl)N1CCN(c2ccccn2)CC1 (stereo not given) | > 10 | > 10 |

| SMILES | IC50 [µM] | IC90 [µM] |
| --- | --- | --- |
| Cc1sc2nc(CN3CCOCC3)nc(NCCOc3ccccc3)c2c1C | > 10 | > 10 |
| CCC(C)N1C(=O)Cc2c1nc(N)c1c(N)nc(N3CC(C)OC(C)C3)c(C#N)c21 (stereo not given) | > 10 | > 10 |
| Cc1noc(C)c1C(=O)ONC(=N)c1ccc(OC(F)(F)F)cc1 | > 9.61 | > 9.61 |
| COC(=O)c1c(N)[nH]c2cc(C(F)(F)F)ccc12 | > 12.8 | > 12.8 |
| Clc1ccc(-c2csc(NCC3CCCO3)n2)cc1 (stereo not given) | > 11.2 | > 11.2 |
| Cc1nc(-c2cccs2)sc1NC(=O)Nc1ccc(Cl)cc1 | > 9.43 | > 9.43 |
| CCNc1ccc(S(=O)(=O)C(F)(F)F)cc1NC(=O)c1ccccc1NS(=O)(=O)c1ccc(F)cc1 | 1.44 | > 10 |
| CS(=O)(=O)c1sc(NC(=O)Nc2ccccc2Cl)c2ccccc12 | > 8.66 | > 8.66 |
| CS(=O)(=O)c1sc(NC(=O)Nc2ccc(Cl)cc2)c2c1C=CCC2 | > 8.62 | > 8.62 |
| C=CCn1c(C)cc(C(=O)Cn2c(=O)c(=O)n(Cc3ccccc3)c3ccc(Cl)cc32)c1C | > 10 | > 10 |
| COC(=O)c1sc2nccnc2c1N | > 15.8 | > 15.8 |
| C#CCCCCCCCCC(=O)NO | > 10 | > 10 |
| N#Cc1ccc(-c2csc(CS(=O)(=O)Cc3cccc(C(F)(F)F)c3)n2)cc1 | > 7.81 | > 7.81 |
| Cc1csc(Sc2ncnc3c2cnn3C)n1 | > 2 | > 2 |
| CCN1CCN(C(=O)C23CC4CC(C2)CC(c2ccc(C)cc2)(C4)C3)CC1 | > 10 | > 10 |
| Cc1nn(S(=O)(=O)c2ccc(-c3ccccn3)s2)c(C)c1Br | > 8.29 | > 8.29 |
| CN(C)c1ccc(C2CC(=O)c3ccccc3N2)cc1 (stereo not given) | > 12.4 | > 12.4 |
| CCOC(=O)c1cnc(NNC(=O)c2ccc(Cl)cc2Cl)nc1C(F)(F)F | > 7.8 | > 7.8 |
| CCSc1nc(SCCCN(C)C)c2c3c(sc2n1)COC(C)(C)C3 | > 8.3 | > 8.3 |
| CSc1nccc(-c2sc3scc(C)c3c2C)n1 | > 11.3 | > 11.3 |
| O=C(Nc1ccc(F)cc1)c1nnsc1S(=O)(=O)c1ccc(Cl)cc1 | 6.54 | > 8.29 |
| CS(=O)(=O)c1ncc(Cl)c(C(=O)C(C#N)c2nc3ccccc3s2)n1 (stereo not given) | 3.08 | 3.59 |
| Clc1cncc2c1Sc1ccccc1N2 | 14 | > 14.1 |

| SMILES | IC50 [µM] | IC90 [µM] |
| --- | --- | --- |
| C=Cc1c(SC)sc(C(=O)O)c1C | > 15.4 | > 15.4 |
| Cc1ccc(-n2nc(C)c3c(C(=O)N4CCC(C)CC4)cc(-c4ccncc4)nc32)cc1 | > 10 | > 10 |
| C=S(=O)(NS(=O)(=O)c1ccc(-c2cc(C(F)(F)F)n(C)n2)s1)c1ccc(Cl)cc1 (stereo not given) | > 6.82 | > 6.82 |
| Cc1nc2nc(-c3ccccc3)nn2c(N2CCCC2)c1Cc1ccccc1 | 3.28 | > 8.93 |
| Cc1cc(C(=N)NOC(=O)C(C)(C)C)cc(C(=N)NOC(=O)C(C)(C)C)c1 | > 8.77 | > 8.77 |
| O=C(NCc1ccc(C(F)(F)F)cc1)c1cc(C(F)(F)F)cc(C(F)(F)F)c1 | > 7.95 | > 7.95 |
| CCC(CO)NC(=S)Nc1cc(C(F)(F)F)cc(C(F)(F)F)c1 (stereo not given) | > 9.16 | > 9.16 |
| O=c1ccn(-c2ccc(Cl)cc2)nc1-c1ccnc(-c2ccccc2)n1 | > 9.15 | > 9.15 |
| CC1=C(C(=O)c2ccc(Cl)cc2)C(c2ccc(C(F)(F)F)cc2)NC(=O)N1 (stereo not given) | > 10 | > 10 |
| CCOc1ccc2nc(NC(=O)C3Cc4ccccc4CN3S(=O)(=O)c3ccc(C)cc3)sc2c1 (stereo not given) | > 10 | > 10 |
| CCOC(=O)NNC(=S)Nc1ccccc1OC | > 12.3 | > 12.3 |
| Cc1ccc2nc(Cn3cc(C(F)(F)F)cc(Cl)c3=O)cn2c1 | > 10 | > 10 |
| CN(C)CCCNc1nc2sc3c(c2c(=O)n1-c1ccccc1)CCCCC3 | > 8.32 | > 8.32 |
| CC(C)n1cc(-c2nc(C(=O)NNC(=O)c3ccccc3Cl)cs2)c(=O)n(Cc2ccccc2)c1=O | > 6.3 | > 6.3 |
| CCCCNC(=S)Nc1cc(C(F)(F)F)ccc1N1CCOCC1 | > 10 | > 10 |
| Cn1cc(C(=O)ONC(=N)c2ccc(C(C)(C)C)cc2)c(C(F)(F)F)n1 | > 8.96 | > 8.96 |
| O=C1c2ccccc2O[C@@H](c2ccccc2)[C@H]1O | > 13.7 | > 13.7 |
| O=C(CSCCCN1CCN(c2cccc(Cl)c2)CC1)NNC(=O)Nc1cc(Cl)cc(Cl)c1 | > 6.22 | > 6.22 |
| Cc1c(C#N)nn(-c2cccc(Cl)c2)c(=O)c1C#N | > 12.2 | > 12.2 |
| Cn1nc(-c2ccc(S(=O)(=O)NCc3cccnc3)s2)cc1C(F)(F)F | > 8.2 | > 8.2 |
| CCOC(=O)c1cc(C#N)c(Sc2ccccn2)nc1C(F)(F)F | > 9.34 | > 9.34 |
| Cc1ccc(-c2cc(=O)n(-c3nc4ccccc4[nH]3)[nH]2)cc1 | > 11.4 | > 11.4 |
| Cc1nc2cc3c(cc2n1CC(=O)N1CCN(c2ccccc2)CC1)OCCO3 | > 10 | > 10 |

| SMILES | IC50 [µM] | IC90 [µM] |
| --- | --- | --- |
| O=C1CC(c2ccccc2Cl)Cc2c1cnn2-c1nc2ccccc2[nH]1 (stereo not given) | 3.26 | 3.82 |
| Cc1ccccc1NC(=O)Nc1scc(S(=O)(=O)C(C)C)c1Cl | > 8.85 | > 8.85 |
| Cc1ccc(NC(=O)c2cc(C(C)(C)C)n(-c3ccccc3)c2C)cc1 | 0.52 | 4.46 |
| COc1ccc(C2CC(c3ccccc3)=NN2C(=O)CSc2ncnc3ccccc23)cc1 (stereo not given) | > 10 | > 10 |
| CCNC(=O)N1CCc2nc(Nc3cc(C)cc(C)c3)ncc2C1 | > 10.1 | > 10.1 |
| CC(C)(C)C(=O)ONC(N)=CS(=O)(=O)c1ccc(Cl)cc1 | > 9.92 | > 9.92 |
| Fc1ccc(-c2csc(NCC3CCCO3)n2)cc1 (stereo not given) | > 11.9 | > 11.9 |
| C=S(=O)(NC(=O)CSc1ccc(Cl)cc1)c1ccc(C)cc1 (stereo not given) | > 9.32 | > 9.32 |
| Cc1nn(Cc2ccccc2Cl)c2sc(C(=O)NC3CCN(Cc4ccccc4)CC3)cc12 | > 10 | > 10 |
| CC(NC(=O)COC(=O)c1cc(O)c2ccccc2c1O)C1CC2CCC1C2 (stereo not given) | > 10 | > 10 |
| OCCNCCNCc1c(OCc2ccccc2F)ccc2ccccc12 | > 8.96 | > 8.96 |
| O=C1C=CC(=O)N1c1ccc2c(c1)OCCO2 | > 14.3 | > 14.3 |
| FC(F)(F)c1cccnc1N1CCN(c2ccc(NC(=S)NCc3ccccc3)cn2)CC1 | > 6.98 | > 6.98 |
| O=C(Nc1nc2c(F)cc(F)cc2s1)c1cnccn1 | > 10 | > 10 |
| Cc1sc2nc(CN3CCOCC3)nc(NCCc3c[nH]c4ccccc34)c2c1C | > 10 | > 10 |
| Cc1c(C(=O)O)cc(-c2ccccc2)n1CCNC(=O)OC(C)(C)C | > 9.58 | > 9.58 |
| COc1ccc(CCn2c(C)cc(C(=O)COC(=O)c3[nH]nc4ccccc34)c2C)cc1 | > 10 | > 10 |
| Cc1nn2c(SCC(=O)O)cc(C(C)(C)C)nc2c1-c1ccc(Cl)cc1 | > 8.46 | > 8.46 |
| CCN(CC)c1ccc(NC(=O)c2ccc(C)cc2)c(N(CC)CC)n1 | > 9.31 | > 9.31 |
| CC(C)Cc1ccc(C2=Nn3c(nnc3-c3cccs3)SC2C)cc1 (stereo not given) | > 7.34 | > 7.34 |
| CC(C)(C)c1ccc(NC(=O)c2nc(-c3ccccc3)n(-c3ccccc3)n2)cc1 | > 10 | > 10 |

— ChEMBL document CHEMBL4483862, “Open-source discovery of chemical leads for next-generation chemoprotective antimalarials” (2018)
